Measurements: ChEMBL document CHEMBL5046277, “Rational Design for Nitroreductase (NTR)-Responsive Proteolysis Targeting Chimeras (PROTACs) Selectively Targeting Tumor Tissues” (J Med Chem, 2022)
Active and inactive are the calls of the source. No cut-off for these calls is given here.

What was measured:
HCC827 [1] = assay: Antiproliferative activity against human HCC827 cells assessed as cell viability measured after 72 hrs by CCK-8 assay; assay type: functional, cell-based
[2] = molecular target: Epidermal growth factor receptor (Homo sapiens) (UniProt P00533); assay: Induction of EGFR degradation in human HCC827 cells assessed as EGFR protein level measured after 72 hrs under normoxic condition by Western blot assay; assay type: functional, cell-based
[3] = molecular target: Epidermal growth factor receptor (Homo sapiens) (UniProt P00533); assay: Induction of EGFR degradation in human HCC827 cells assessed as EGFR protein level measured after 72 hrs by Western blot assay; assay type: cell-based
[4] = molecular target: von Hippel-Lindau disease tumor suppressor/Epidermal growth factor receptor (Homo sapiens) (UniProt P00533+P40337); assay: Protac activity at VHL/EGFR in human HCC827 cells assessed as induction of EGFR degradation at 100 nM pretreated for 2 hrs with VHL-L followed by compound addition; assay type: cell-based
HCC827 [5] = assay: Antiproliferative activity against human HCC827 cells assessed as cell viability measured after 72 hrs under hypoxic condition by CCK-8 assay; assay type: functional, cell-based; conditions: HCC827, 72 h
HCC827 [6] = assay: Antiproliferative activity against human HCC827 cells assessed as reduction in cell viability measured after 72 hrs under normoxic condition by CCK-8 assay; assay type: functional, cell-based; conditions: HCC827, 72 h
HCC827 [7] = assay: Antiproliferative activity against human HCC827 cells assessed as cell viability measured after 72 hrs in presence of NTR by CCK-8 assay; assay type: functional, cell-based; conditions: HCC827, 72 h

Chain of Epidermal growth factor receptor (Homo sapiens) (P00533 whole entry): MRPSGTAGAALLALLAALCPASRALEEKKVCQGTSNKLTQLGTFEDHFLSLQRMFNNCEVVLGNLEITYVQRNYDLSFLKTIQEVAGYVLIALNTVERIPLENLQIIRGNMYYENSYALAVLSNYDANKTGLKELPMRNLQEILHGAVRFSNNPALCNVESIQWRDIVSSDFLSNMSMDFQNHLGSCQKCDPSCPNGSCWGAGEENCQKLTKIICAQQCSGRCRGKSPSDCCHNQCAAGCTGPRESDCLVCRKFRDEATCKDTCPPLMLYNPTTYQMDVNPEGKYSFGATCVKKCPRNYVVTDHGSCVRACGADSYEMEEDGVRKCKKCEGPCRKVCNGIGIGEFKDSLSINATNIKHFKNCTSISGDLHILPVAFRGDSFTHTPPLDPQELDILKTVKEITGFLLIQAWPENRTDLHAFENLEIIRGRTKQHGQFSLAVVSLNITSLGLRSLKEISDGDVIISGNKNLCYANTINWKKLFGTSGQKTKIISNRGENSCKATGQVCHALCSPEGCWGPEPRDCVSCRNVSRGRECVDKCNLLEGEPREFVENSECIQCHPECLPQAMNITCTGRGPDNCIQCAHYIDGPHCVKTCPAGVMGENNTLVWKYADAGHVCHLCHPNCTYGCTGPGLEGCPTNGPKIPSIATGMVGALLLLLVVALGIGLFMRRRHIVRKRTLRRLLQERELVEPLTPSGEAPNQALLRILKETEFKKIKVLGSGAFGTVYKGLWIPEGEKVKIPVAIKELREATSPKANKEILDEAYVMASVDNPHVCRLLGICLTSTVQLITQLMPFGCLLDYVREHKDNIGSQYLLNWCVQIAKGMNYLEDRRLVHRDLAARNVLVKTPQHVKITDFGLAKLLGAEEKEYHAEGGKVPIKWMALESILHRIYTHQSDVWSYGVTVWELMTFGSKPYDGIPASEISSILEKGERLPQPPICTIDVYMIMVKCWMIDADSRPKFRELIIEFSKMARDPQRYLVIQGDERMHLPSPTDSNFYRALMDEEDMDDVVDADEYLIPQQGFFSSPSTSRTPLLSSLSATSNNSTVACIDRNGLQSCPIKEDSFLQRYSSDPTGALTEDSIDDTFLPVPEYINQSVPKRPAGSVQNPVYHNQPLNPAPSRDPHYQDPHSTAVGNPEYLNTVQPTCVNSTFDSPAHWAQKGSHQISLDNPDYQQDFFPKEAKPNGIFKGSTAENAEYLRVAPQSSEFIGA
Chain of von Hippel-Lindau disease tumor suppressor/Epidermal growth factor receptor (Homo sapiens) (P00533 25-1210 limits assumed): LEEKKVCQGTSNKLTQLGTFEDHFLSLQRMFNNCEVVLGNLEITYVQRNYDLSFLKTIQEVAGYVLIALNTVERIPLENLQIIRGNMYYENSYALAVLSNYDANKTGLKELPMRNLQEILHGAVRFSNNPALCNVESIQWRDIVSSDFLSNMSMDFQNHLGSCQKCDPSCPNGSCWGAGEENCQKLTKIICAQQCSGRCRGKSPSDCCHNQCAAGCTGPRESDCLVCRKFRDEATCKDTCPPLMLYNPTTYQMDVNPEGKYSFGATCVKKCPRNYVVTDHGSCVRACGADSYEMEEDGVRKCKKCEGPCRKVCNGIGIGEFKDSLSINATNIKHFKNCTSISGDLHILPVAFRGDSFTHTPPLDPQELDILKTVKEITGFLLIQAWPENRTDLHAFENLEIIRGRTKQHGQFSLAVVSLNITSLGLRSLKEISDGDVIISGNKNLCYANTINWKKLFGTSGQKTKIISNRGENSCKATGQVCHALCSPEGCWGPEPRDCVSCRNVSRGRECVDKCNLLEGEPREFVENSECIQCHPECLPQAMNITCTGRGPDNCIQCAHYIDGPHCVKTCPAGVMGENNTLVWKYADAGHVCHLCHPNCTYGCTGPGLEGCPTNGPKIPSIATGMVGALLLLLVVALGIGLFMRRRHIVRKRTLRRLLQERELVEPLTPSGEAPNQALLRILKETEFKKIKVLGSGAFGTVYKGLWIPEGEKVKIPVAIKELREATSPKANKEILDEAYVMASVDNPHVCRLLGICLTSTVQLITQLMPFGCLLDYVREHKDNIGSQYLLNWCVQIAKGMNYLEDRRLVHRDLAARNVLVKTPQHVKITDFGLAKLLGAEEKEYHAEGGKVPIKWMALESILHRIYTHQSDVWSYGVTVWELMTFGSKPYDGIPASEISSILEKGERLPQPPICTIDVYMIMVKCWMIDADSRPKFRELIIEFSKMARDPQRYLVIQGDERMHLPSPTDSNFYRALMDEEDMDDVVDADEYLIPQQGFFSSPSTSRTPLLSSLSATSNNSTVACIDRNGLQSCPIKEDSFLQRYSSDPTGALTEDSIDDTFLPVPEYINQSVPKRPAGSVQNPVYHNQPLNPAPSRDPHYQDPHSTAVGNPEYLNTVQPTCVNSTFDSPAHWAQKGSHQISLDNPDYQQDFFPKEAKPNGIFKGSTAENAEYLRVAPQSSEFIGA
Chain of von Hippel-Lindau disease tumor suppressor/Epidermal growth factor receptor (Homo sapiens) (P40337 whole entry partner): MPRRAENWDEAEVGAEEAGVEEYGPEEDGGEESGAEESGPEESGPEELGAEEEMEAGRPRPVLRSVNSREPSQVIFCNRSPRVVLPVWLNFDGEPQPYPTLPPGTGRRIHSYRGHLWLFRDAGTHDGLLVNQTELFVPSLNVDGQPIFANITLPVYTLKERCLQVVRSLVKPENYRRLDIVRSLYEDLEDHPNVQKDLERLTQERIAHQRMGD

Row | Activity [2] | Activity [3] | Activity [4] | IC50 (HCC827 [5]) | IC50 (HCC827 [6]) | IC50 (HCC827 [7]) | Compound | Activity (HCC827 [1])
1 | inactive | inactive |  |  |  |  | Cc1ncsc1-c1ccc(CNC(=O)[C@@H]2C[C@@H](O)CN2C(=O)[C@@H](NC(=O)COCCOCCOCCn2cc(COc3cc4ncnc(Nc5ccc(F)c(Cl)c5)c4cc3NC(=O)/C=C/CN3CCCCC3)nn2)C(C)(C)C)cc1 | inactive
2 | Dose-Dependent Effect |  | Active | 18.7 nM | 4 nM | 6 nM | Cc1ncsc1-c1ccc(CNC(=O)[C@@H]2C[C@@H](O)CN2C(=O)[C@@H](NC(=O)COCCOCCn2cc(CCCCCOc3cc4ncnc(Nc5ccc(F)c(Cl)c5)c4cc3NC(=O)/C=C/CN3CCCCC3)nn2)C(C)(C)C)cc1 | 
